The values that follow come from publication PMC5847048 (Psychopharmacology, 2017).

The assay deals with middle-aged mice (14–15 months old). Description: Contextual serial discrimination (CSD) task. The class given is in vivo, mouse. Conditions: for Strength of contextual memory (SCM) score, first discrimination D1: Experiment 1 study A, middle-aged mice, vehicle − 21.66%; for SCM score (LSMeans ± SE LSMeans): Experiment 2, 9 days, D1. How it is done:
Treatments were administered per os daily for nine consecutive days for studies involving the CSD and SA tasks. The 8th and the 9th oral administrations were given 60 min before acquisition and test phases in the CSD task, or before the training and the test sessions in the SA task.
The studies were carried out on mice according to the procedure described in full by Celerier et al. ([2004]) and Tronche et al. ([2010]) (Fig.1). Briefly, the mouse learns two consecutive spatial discriminations (D1 and D2) in a four hole-board apparatus (45 × 45 × 30 cm) enclosed with gray Plexiglas walls. The floor of the hole-board was interchangeable (white and rough versus black and smooth). On the floor, four holes opening on a food cup (3-cm diameter × 2.5-cm depth) were located 6 cm away from the sidewalls. Photocells located into the holes allowed an automatic recording of the number of head-dips in each hole.
Fig. 1 a Contextual serial discrimination: at the acquisition phase, mice performed two consecutive spatial discrimination sessions varying by the color and texture of the floor, i.e., D1, discrimination 1, and D2, discrimination 2. For each discrimination session, only one out of the four holes of the apparatus was baited (hashed circles). […] One hour prior to acquisition and test phases, mice received a per os administration of the compounds or vehicle solution in a chamber placed in a room (room C) different from the one in which the behavioral experiments were conducted (room A). Subsequently, mice were submitted to the test phase in which they were repositioned on the floor of the first discrimination without any food pellet in the apparatus. b Two types of responses were calculated: (i) correct responses corresponding to head-dips into the hole baited at the acquisition of the first discrimination (D1), on the same floor context; (ii) interference responses corresponding to head-dips into the hole baited at the other (second) discrimination (D2). Both parameters allow calculation of the SCM score
Mice were partially food-deprived for 1 week prior to experimentation and were maintained on a 12 ± 2% loss of their body weight throughout behavioral testing to increase motivation for food reward. During the food deprivation phase, mice were handled daily to familiarize them with the experimenter.
During the acquisition session, mice were first placed at the center of the board in a plastic tube for 15 s and then learned two successive spatial discriminations (D1 and D2) for 6 min each and were each separated by a 2-min interval. Between two sessions, each mouse was placed in its home cage in an animal housing room. For D1, ten 20-mg pellets were available only in one of the four holes in the board. For D2, ten 20-mg pellets were located in the opposite symmetrical hole. The environmental spatial cues remained at the same place for D1 and D2. Within each group, the floors used for the first and second discrimination (D1 and D2) were counterbalanced at the acquisition phase from one mouse to the other. A minimal amount of eight pellets should be eaten per mouse at either D1 or D2 during the acquisition phase.
During memory testing, D1 and D2 discriminations were performed in independent groups of mice, being replaced either on the floor of D1 or of D2. The food-deprived mice were replaced either on the floor of D1 or on the floor of D2. In each case, mice were allowed to explore the apparatus freely and performance was assessed by measuring the exploration for each hole for 6 min without any pellets in the apparatus. During the procedure, photocells allowed measurement of the number of head dips in each hole. Different parameters were further calculated: % of correct responses (head-dips into the hole previously baited on the same floor context), % of interfering responses (head-dips into the hole previously baited on the other floor context), and % of errors (head-dips into the two holes never previously baited).

The structures appear in SMILES notation.

`O=C1c2cc3nnn(CCc4cccc(F)c4)c(=O)c3cc2OCN1C1CC1` [S 47445]: the “Total number of explorations and % exploration of the baited hole, acquisition phase” value (Experiment 1 (study A and B), compounds alone, p> 0.10 in all analyses) is “No significant between-groups difference”. Also, the “Memory performance in the second discrimination (D2)” value (Experiment 1, S 47445 at all doses, donepezil at the active doses, versus middle-aged vehicle, data not shown) is on record as “did not alter memory performance”. The “Total number of head-dips, test phase” value (Experiment 1, versus vehicles (p > 0.10 in all comparisons), data not shown) is recorded as “no significant effect”. Further, the “Strength of contextual memory (SCM) score, first discrimination D1” value by setting is: (S 47445 0.1 mg/kg p.o. daily 9 days) 6.56%; (S 47445 0.3 mg/kg p.o. daily 9 days) 10.57%. In addition, the “SCM score (LSMeans ± SE LSMeans)” value (S 47445 0.1 mg/kg p.o. alone) came out at 5.1515 ± 7.7919% and the “SCM score (LSMeans ± SE LSMeans)” value (S 47445 0.3 mg/kg p.o. alone) is 11.7033 ± 7.7919%. For the same molecule, for the setting “S 47445 0.03 mg/kg, all levels of donepezil pooled”, the “Post hoc analysis of S 47445 effect on SCM score for all donepezil levels (Dunnett, versus vehicle group)” value is reported as “+ (+p ≤ 0.050)”. The “SCM score of the second discrimination (D2), dose effect at pooled levels of the other drug” value (Supplemental data 2, S 47445 0.03–0.3 mg/kg p.o. (p=0.951), Donepezil 0.03 and 0.1 mg/kg (p=0.074)) is “no significant effect”.
